Measured values: patent US12583829B2, “Salt of benzothiazole compound, and crystal form and use thereof” (Sichuan Kelun Pharmaceutical Research Institute Co., Ltd., priority 2020, dated 2026)

Legend:
[1] = rats, FDA data for Mirapex ER (pramipexole dihydrochloride), NDA 22-421; cited from earlier work
[2] = Solubility test in pure water, room temperature, HPLC; assay type: physicochemical; settings: thermodynamic from solid, excess sample, shaken at room temperature for 15 h, filtered
Method: The samples were taken into pure water, and an excess amount of samples were added, which were then shaked at room temperature for 15 h, and filtered, and detected by HPLC. HPLC test conditions: mobile phase: sodium octanesulfonate-potassium dihydrogen phosphate buffer solution (5.0 g of sodium octanesulfonate and 9.1 g of potassium dihydrogen phosphate were taken, and added into 1000 ml of water for dissolution, and the pH was adjusted to 3.0 with phosphoric acid)-acetonitrile (72:28); The detection wavelength was 264 nm; The flow rate was 1.5 ml per minute; The column temperature was 40° C.; Injection volume: 10 μl; Chromatographic column: octadecyl silane bonded silica gel as filler (CAPCELL PAK MG II C18, 4.6 mm×250 mm, 5 μm).

solubility at 15 h [2]: 140 µg/mL
Structure (SMILES): CCCN[C@H]1CCc2nc(N)sc2C1 [Compound of formula I, (S)-2-amino-4,5,6,7-tetrahydro-6-propylamine-benzothiazole]
T1/2 [1]: 3.18 h
Tmax [1]: 0.5 h
